Data taken from ChEMBL document CHEMBL1201862, “PubChem BioAssay data set” (2004).
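These data come from cells grown in 96-well plates and exposed to compound for 48 hours at five concentrations. GI50 = concentration required for 50% inhibition of growth.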 Active and inactive are the calls of the source. No stated cut-off is given here; in the data, active = GI50 up to about 1.1 µM and inactive = higher.

What was measured:
Assay in all cases: growth of human tumour cells (NCI), 48 h
[1] = system: UACC-62
[2] = system: SNB-75
[3] = system: KM12
[4] = system: CCRF-CEM
[5] = system: MDA-MB-231
[6] = system: OVCAR-8
[7] = system: SK-MEL-5
[8] = system: DU-145
[9] = system: UO-31
[10] = system: HOP-62
[11] = system: EKVX
[12] = system: MDA-MB-435
[13] = system: SF-539
[14] = system: U-251
[15] = system: ACHN
[16] = system: SW-620
[17] = system: SNB-19
[18] = system: SN12C
[19] = system: OVCAR-3

| Structure (SMILES) | GI50 [1] | GI50 [2] | GI50 [3] | GI50 [4] | GI50 [5] | GI50 [6] | GI50 [7] | GI50 [8] | GI50 [9] | GI50 [10] | GI50 [11] | GI50 [12] | GI50 [13] | GI50 [14] | GI50 [15] | GI50 [16] | GI50 [17] | GI50 [18] | GI50 [19] |
| --- | --- | --- | --- | --- | --- | --- | --- | --- | --- | --- | --- | --- | --- | --- | --- | --- | --- | --- | --- |
| COc1ccccc1Nc1nc(N)nc(N)c1N=O | > 100 µM (inactive) | > 100 µM (inactive) | > 100 µM (inactive) | > 100 µM (inactive) | > 100 µM (inactive) | > 100 µM (inactive) | > 100 µM (inactive) | > 100 µM (inactive) | > 100 µM (inactive) | > 100 µM (inactive) | > 100 µM (inactive) | > 100 µM (inactive) | > 100 µM (inactive) | > 100 µM (inactive) | > 100 µM (inactive) | > 100 µM (inactive) | > 100 µM (inactive) | > 100 µM (inactive) | – |
| O=C1C(c2c(O)[nH]c3ccc(S(=O)(=O)O)cc23)=Nc2ccccc21 | > 100 µM (inactive) | > 100 µM (inactive) | > 100 µM (inactive) | > 100 µM (inactive) | > 100 µM (inactive) | > 100 µM (inactive) | > 100 µM (inactive) | > 100 µM (inactive) | > 100 µM (inactive) | > 100 µM (inactive) | > 100 µM (inactive) | > 100 µM (inactive) | – | > 100 µM (inactive) | > 100 µM (inactive) | > 100 µM (inactive) | > 100 µM (inactive) | > 100 µM (inactive) | > 100 µM (inactive) |
| CC(CCCCNC(=O)OC(C)(C)C)NC(=O)NC(C)CCCCNC(=O)OC(C)(C)C (stereo not drawn) | 73.6 µM (inactive) | > 100 µM (inactive) | > 100 µM (inactive) | 6.21 µM (inactive) | > 100 µM (inactive) | > 100 µM (inactive) | 30 µM (inactive) | > 100 µM (inactive) | > 100 µM (inactive) | > 100 µM (inactive) | > 100 µM (inactive) | > 100 µM (inactive) | – | > 100 µM (inactive) | > 100 µM (inactive) | > 100 µM (inactive) | > 100 µM (inactive) | > 100 µM (inactive) | 57 µM (inactive) |
| CC(=O)Nc1ccc2c(c1)/C(=C\c1ccc([N+](C)(C)C)cc1)c1ccccc1-2 | 48 µM (inactive) | 28.1 µM (inactive) | 31.9 µM (inactive) | 22.5 µM (inactive) | 4.43 µM (inactive) | 41.7 µM (inactive) | 24.2 µM (inactive) | 89.3 µM (inactive) | 29.6 µM (inactive) | 48.3 µM (inactive) | 26.5 µM (inactive) | 36.2 µM (inactive) | – | 18.4 µM (inactive) | > 100 µM (inactive) | 44.1 µM (inactive) | 23.6 µM (inactive) | 31 µM (inactive) | 36.5 µM (inactive) |
| C[As+](C)(c1ccc(Br)c([N+](=O)[O-])c1)c1ccc(Br)c([N+](=O)[O-])c1 | > 100 µM (inactive) | > 100 µM (inactive) | > 100 µM (inactive) | – | > 100 µM (inactive) | > 100 µM (inactive) | 9.12 µM (inactive) | > 100 µM (inactive) | > 100 µM (inactive) | > 100 µM (inactive) | > 100 µM (inactive) | > 100 µM (inactive) | > 100 µM (inactive) | > 100 µM (inactive) | > 100 µM (inactive) | > 100 µM (inactive) | > 100 µM (inactive) | > 100 µM (inactive) | > 100 µM (inactive) |
| CC12CC3c4ccccc4CN1C3(c1ccccc1)OC2=O (stereo not drawn) | > 100 µM (inactive) | > 100 µM (inactive) | > 100 µM (inactive) | > 100 µM (inactive) | > 100 µM (inactive) | > 100 µM (inactive) | > 100 µM (inactive) | > 100 µM (inactive) | > 100 µM (inactive) | > 100 µM (inactive) | > 100 µM (inactive) | > 100 µM (inactive) | > 100 µM (inactive) | > 100 µM (inactive) | > 100 µM (inactive) | > 100 µM (inactive) | > 100 µM (inactive) | > 100 µM (inactive) | – |
| O=C1OC(c2ccccc2)=N/C1=C\c1ccc(Cl)cc1 | > 100 µM (inactive) | > 100 µM (inactive) | > 100 µM (inactive) | 61.5 µM (inactive) | > 100 µM (inactive) | > 100 µM (inactive) | > 100 µM (inactive) | > 100 µM (inactive) | > 100 µM (inactive) | > 100 µM (inactive) | > 100 µM (inactive) | > 100 µM (inactive) | – | > 100 µM (inactive) | > 100 µM (inactive) | > 100 µM (inactive) | > 100 µM (inactive) | > 100 µM (inactive) | > 100 µM (inactive) |
| O=C(O)c1cc2ccccc2c(/N=N/c2ccccc2)c1O | 17.4 µM (inactive) | 19.8 µM (inactive) | 14.9 µM (inactive) | 38.5 µM (inactive) | > 100 µM (inactive) | 37.2 µM (inactive) | 5.47 µM (inactive) | 14.5 µM (inactive) | 31.2 µM (inactive) | 14.8 µM (inactive) | 23.4 µM (inactive) | 15.1 µM (inactive) | – | 12.8 µM (inactive) | 26.2 µM (inactive) | 23.8 µM (inactive) | 26.1 µM (inactive) | 23.3 µM (inactive) | 26.2 µM (inactive) |
| c1ccc(/N=c2/sc3ccccc3s/c2=N/c2ccccc2)cc1 | 1.36 µM (inactive) | 2.82 µM (inactive) | 1.99 µM (inactive) | > 100 µM (inactive) | 2.21 µM (inactive) | 1.89 µM (inactive) | 1.99 µM (inactive) | 5.02 µM (inactive) | 1.58 µM (inactive) | 4.45 µM (inactive) | 2.76 µM (inactive) | 1.9 µM (inactive) | 1.88 µM (inactive) | 1.86 µM (inactive) | 1.66 µM (inactive) | 1.72 µM (inactive) | 4.71 µM (inactive) | 1.75 µM (inactive) | – |
| COCN1C(N)=C(C(=O)OC(C)(C)C)C2=CC(=O)C=CC21C (stereo not drawn) | 15.6 µM (inactive) | 19.1 µM (inactive) | 16.6 µM (inactive) | 3.66 µM (inactive) | 15.3 µM (inactive) | 18 µM (inactive) | 15.3 µM (inactive) | 11.9 µM (inactive) | 13.6 µM (inactive) | 28.4 µM (inactive) | 16.5 µM (inactive) | 13.2 µM (inactive) | 17.4 µM (inactive) | 17 µM (inactive) | 7.01 µM (inactive) | 4.99 µM (inactive) | > 100 µM (inactive) | 25.8 µM (inactive) | – |
| CC(=O)NC1C(OC(C)C(=O)NC(C(=O)NC(CCC(=O)NCCCNC2c3ccccc3Nc3cccc([N+](=O)[O-])c32)C(N)=O)C(C)C)C(O)C(CO)OC1(C)OCc1ccccc1 (stereo not drawn) | 0.577 µM (active) | 1.91 µM (inactive) | 1.77 µM (inactive) | 1.02 µM (active) | 0.54 µM (active) | 1.1 µM (active) | 0.198 µM (active) | 0.264 µM (active) | 1.25 µM (inactive) | 1.27 µM (inactive) | 1.54 µM (inactive) | 0.579 µM (active) | – | 1.39 µM (inactive) | 0.621 µM (active) | 0.291 µM (active) | 1.56 µM (inactive) | 0.822 µM (active) | 0.946 µM (active) |
